The values that follow come from PubChem BioAssay AID1357 (Sanford-Burnham Center for Chemical Genomics, 2008).

Calls of active or inactive are those of the source.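 The calls were made as follows: active = no band for the stress protein CHOP on the immunoblot after the stress trigger, its induction blocked; inactive = CHOP band still seen after the stress trigger.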

The subject of this experiment is CSM14.1 cells, thapsigargin-induced CHOP Western blot. Put plainly: blocking ER stress CHOP protein upregulation – thapsigargin stimulus, CSM14.1 cells, Western blot, mechanism study for ER stress cell death inhibitors (AID 1357). (In general: A western blot detects proteins with antibodies after separation by electrophoresis.)
For `CSc1ccc(C2Nc3ccccc3NC3=C2C(=O)CC(c2ccccc2)C3)cc1` (stereo unspecified), the result was inactive.

Regarding `COc1ccc(C2CC(=O)C3=C(C2)Nc2ccccc2NC3c2cccc(Oc3ccccc3)c2)cc1OC` (stereo unspecified), the outcome was inactive.

With `CCCOc1ccc(C2Nc3ccccc3NC3=C2C(=O)CC(c2ccc(OC)c(OC)c2)C3)cc1` (stereo unspecified), the outcome was inactive.

As to `COc1ccc(C2CC(=O)C3=C(C2)Nc2ccccc2NC3c2cccc(Br)c2)cc1OC` (stereo unspecified), the result was inactive.

Consider `O=C1CC(c2ccccc2)CC2=C1C(c1c(F)cccc1Cl)Nc1ccccc1N2` (stereo unspecified), for which the outcome was inactive.

`CCOc1cc(C2Nc3ccccc3NC3=C2C(=O)CC(c2ccc(OC)cc2)C3)cc(Cl)c1O` (stereo unspecified): the result was inactive.

As for `COc1ccc(C2CC(=O)C3=C(C2)Nc2ccccc2NC3c2cc(C)ccc2C)cc1` (stereo unspecified), the result was inactive.

Turning to `CC1(C)CC(=O)C2=C(C1)Nc1ccccc1NC2c1ccc(-c2ccccc2)cc1` (stereo unspecified), the result was inactive.

For the compound `CCOc1cccc(C2Nc3ccccc3NC3=C2C(=O)CC(c2ccc(OC)cc2)C3)c1` (stereo unspecified), the result was inactive.

`COc1ccc(C2CC(=O)C3=C(C2)Nc2ccccc2NC3c2cccc(C(F)(F)F)c2)cc1OC` (stereo unspecified): the result was inactive.

Consider `COc1ccc(C2CC(=O)C3=C(C2)Nc2ccccc2NC3c2ccccc2C(F)(F)F)cc1OC` (stereo unspecified), for which the outcome was inactive.
